Experimental data as given in patent US20020035061A1, “COMPOSITIONS AND METHODS FOR TREATING INFECTIONS USING CATIONIC PEPTIDES ALONE OR IN COMBINATION WITH ANTIBIOTICS” (priority 1996, published 2002).
Like-named read-outs stand apart in the source and are kept apart here.

Legend:
Assay type in all cases: cell-based
A. calcoaceticus = system: A. calcoaceticus
E. cloacae = system: E. cloacae
E. coli = system: E. coli
E. faecalis = system: E. faecalis
K. pneumoniae = system: K. pneumoniae
P. aeruginosa = system: P. aeruginosa
S. aureus = system: S. aureus
S. epidermidis = system: S. epidermidis
S. maltophilia = system: S. maltophilia
S. marcescens = system: S. marcescens

Sequence: PRIWKPKWRLPKR [MBI 11J01CN]
- MIC (A. calcoaceticus; A. calcoaceticus AC002): 4 µg/mL
- MIC (E. cloacae; E. cloacae ECL007): >128 µg/mL
- MIC (E. coli; E. coli ECO005): 64 µg/mL
- MIC (E. faecalis; E. faecalis EFS001): 128 µg/mL
- MIC (E. faecalis; E. faecalis EFS008): >128 µg/mL
- MIC (K. pneumoniae; K. pneumoniae KP001): >128 µg/mL
- MIC (P. aeruginosa; P. aeruginosa PA004): >128 µg/mL
- MIC (S. aureus; S. aureus SA014): 16 µg/mL
- MIC (S. aureus; S. aureus SA093): 2 µg/mL
- MIC (S. epidermidis; S. epidermidis SE010): 32 µg/mL
- MIC (S. maltophilia; S. maltophilia SMA002): >128 µg/mL
- MIC (S. marcescens; S. marcescens SMS003): >128 µg/mL

Sequence: RWWWPWRRK [MBI 11G28CN]
- MIC (A. calcoaceticus; A. calcoaceticus AC002): 2 µg/mL
- MIC (E. cloacae; E. cloacae ECL007): >128 µg/mL
- MIC (E. coli; E. coli ECO005): 8 µg/mL
- MIC (E. faecalis; E. faecalis EFS001): 4 µg/mL
- MIC (E. faecalis; E. faecalis EFS008): 32 µg/mL
- MIC (K. pneumoniae; K. pneumoniae KP001): 64 µg/mL
- MIC (P. aeruginosa; P. aeruginosa PA004): 128 µg/mL
- MIC (S. aureus; S. aureus SA014): 4 µg/mL
- MIC (S. aureus; S. aureus SA093): 1 µg/mL
- MIC (S. epidermidis; S. epidermidis SE010): 4 µg/mL
- MIC (S. maltophilia; S. maltophilia SMA002): 32 µg/mL
- MIC (S. marcescens; S. marcescens SMS003): >128 µg/mL

Sequence: WPWWPWRRK [MBI 11G27CN]
- MIC (A. calcoaceticus; A. calcoaceticus AC002): 2 µg/mL
- MIC (E. cloacae; E. cloacae ECL007): >128 µg/mL
- MIC (E. coli; E. coli ECO005): 16 µg/mL
- MIC (E. faecalis; E. faecalis EFS001): 8 µg/mL
- MIC (E. faecalis; E. faecalis EFS008): 32 µg/mL
- MIC (K. pneumoniae; K. pneumoniae KP001): 32 µg/mL
- MIC (P. aeruginosa; P. aeruginosa PA004): 128 µg/mL
- MIC (S. aureus; S. aureus SA014): 4 µg/mL
- MIC (S. aureus; S. aureus SA093): 1 µg/mL
- MIC (S. epidermidis; S. epidermidis SE010): 8 µg/mL
- MIC (S. maltophilia; S. maltophilia SMA002): 32 µg/mL
- MIC (S. marcescens; S. marcescens SMS003): >128 µg/mL

Sequence: WWRWPWWPWRRK [MBI 11A10CN]
- MIC (A. calcoaceticus; A. calcoaceticus strain AC002): 4 µg/mL
- MIC (E. cloacae; E. cloacae strain ECL007): 64 µg/mL
- MIC (E. coli; E. coli strain ECO005): 16 µg/mL
- MIC (E. faecalis; E. faecalis strain EFS001): 4 µg/mL
- MIC (E. faecalis; E. faecalis strain EFS008): 16 µg/mL
- MIC (K. pneumoniae; K. pneumoniae strain KP001): 16 µg/mL
- MIC (P. aeruginosa; P. aeruginosa strain PA004): 64 µg/mL
- MIC (S. aureus; S. aureus strain SA014): 4 µg/mL
- MIC (S. aureus; S. aureus strain SA093): 2 µg/mL
- MIC (S. epidermidis; S. epidermidis strain SE010): 4 µg/mL
- MIC (S. maltophilia; S. maltophilia strain SMA002): 32 µg/mL
- MIC (S. marcescens; S. marcescens strain SMS003): >128 µg/mL
